Test results published in patent US8901138B2, “Sulfoximine substituted quinazolines for pharmaceutical compositions” (Boehringer Ingelheim International GmbH, priority 2012, dated 2014).

What was measured:
MNK2a = target: T1, MNK2a (Homo sapiens, UniProt Q9HBH9); test: MNK2a in vitro kinase assay (assay 1), ADP-Glo; type: biochemical; conditions: preactivated GST-MNK2a, 20 μM ATP, read-out: MNK2 IC50
T1 construct: made in house
Summary of the method: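 Preactivated GST-MNK2a (10 nM) with eIF4E peptide (25 μM) and ATP (20 μM) in HEPES/DTT/MgCl2 buffer, 90 min at room temperature, final DMSO <3%. ADP formed read by ADP-Glo luminescence and normalised to vehicle and 20 μM reference-inhibitor controls; IC50 from dose-response curves.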

MNK1a = MNK1a (Homo sapiens, UniProt Q9BUB5); test: MNK1 in vitro kinase assay (assay 2), Z'-LYTE; type: biochemical; conditions: for inhibition at 1 µM: compound concentration of 1 μM; for IC50: pre-activated GST-MNK1a
MNK1a, sequence (Q9BUB5 1-424 isoform Q9BUB5-2): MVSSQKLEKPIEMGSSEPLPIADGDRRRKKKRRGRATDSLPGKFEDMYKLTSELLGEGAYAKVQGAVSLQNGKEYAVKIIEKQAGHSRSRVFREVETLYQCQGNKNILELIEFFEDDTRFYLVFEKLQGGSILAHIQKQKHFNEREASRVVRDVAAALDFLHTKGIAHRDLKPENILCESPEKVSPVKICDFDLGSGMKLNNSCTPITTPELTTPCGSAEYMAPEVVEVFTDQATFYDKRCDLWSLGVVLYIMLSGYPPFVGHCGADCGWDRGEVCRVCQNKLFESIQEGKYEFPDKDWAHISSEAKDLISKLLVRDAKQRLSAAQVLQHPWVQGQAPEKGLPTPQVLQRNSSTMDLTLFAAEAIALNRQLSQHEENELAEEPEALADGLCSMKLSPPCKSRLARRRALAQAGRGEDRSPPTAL
Summary of the method: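 Pre-activated GST-MNK1a (13.5-54 ng) with 2 μM Ser/Thr 07 FRET peptide in 50 mM HEPES pH 7.5, 10 mM MgCl2, 2 mM MnCl2, 1 mM EGTA, 1 mM DTT, 1% DMSO; 1 h kinase then 1 h development at room temperature. Coumarin/fluorescein emission ratio gives % phosphorylation; sigmoidal dose-response fit.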

T1 sequence (Q9HBH9 whole entry): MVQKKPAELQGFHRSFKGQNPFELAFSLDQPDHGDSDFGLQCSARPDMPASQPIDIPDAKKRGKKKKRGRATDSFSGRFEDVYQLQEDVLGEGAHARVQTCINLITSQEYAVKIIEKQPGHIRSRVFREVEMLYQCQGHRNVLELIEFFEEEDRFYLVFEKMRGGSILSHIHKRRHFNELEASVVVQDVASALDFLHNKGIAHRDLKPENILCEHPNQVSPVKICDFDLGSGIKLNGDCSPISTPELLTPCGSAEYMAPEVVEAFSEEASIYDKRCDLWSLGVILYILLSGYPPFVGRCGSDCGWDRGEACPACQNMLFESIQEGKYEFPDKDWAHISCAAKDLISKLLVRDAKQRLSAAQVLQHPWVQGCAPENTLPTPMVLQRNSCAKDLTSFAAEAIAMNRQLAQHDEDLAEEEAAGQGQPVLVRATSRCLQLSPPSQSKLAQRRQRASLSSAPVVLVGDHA

| SMILES | IC50 (MNK2a) [nM] | inhibition at 1 µM (MNK1a) [%] | IC50 (MNK1a) [nM] |
| --- | --- | --- | --- |
| Cc1cc(N=S2(=O)CCOCC2)cc2ncnc(Nc3ccc(F)cc3O[C@H]3CCOC3)c12 [Example 2.3] | 5 | 89 |  |
| CO[C@H]1CC[C@H](Oc2cc(F)ccc2Nc2ncnc3cc(N=S4(=O)CCCCC4)cc(C)c23)CC1 [Example 2.84] | 2 | 91 |  |
| Cc1cc(N=S2(=O)CCOCC2)cc2ncnc(Nc3ccc(F)cc3O[C@@H]3CO[C@H]4[C@@H]3OC[C@H]4O)c12 [Example 2.2] | 4 | 95 |  |
| CCS(C)(=O)=Nc1cc(C)c2c(Nc3ccc(F)cc3O[C@@H]3CO[C@H]4[C@@H]3OC[C@H]4O)ncnc2c1 (stereo partly shown) [Example 2.33] | 3 | 100 |  |
| Cc1cc(N=S(C)(C)=O)cc2ncnc(Nc3cccnc3O[C@@H]3CCCN(CCO)C3)c12 [Example 6.10] | 8 | 89 |  |
| Cc1cc(N=[S@](C)(=O)c2ccccc2)cc2ncnc(Nc3ccc(F)cc3O[C@H]3CCOC3)c12 [Example 2.72] | 30 | 71 |  |
| Cc1cc(N=S2(=O)CCCC2)cc2ncnc(Nc3ccc(F)cc3O[C@@H]3CC[C@@H]4OCC[C@@H]43)c12 [Example 2.125] | 2 | 94 |  |
| Cc1cc(N=S(C)(C)=O)cc2ncnc(Nc3ccc(F)cc3OC3(C)CCOC3)c12 (stereo not shown) [Example 1.32] | 7 |  | 149 |
| CS(C)(=O)=Nc1cc(F)c2c(Nc3cccnc3O[C@@H]3CCOC3)ncnc2c1 [Example 2.53] | 13 | 94 |  |
| CCOc1cc(N=S(C)(C)=O)cc2ncnc(Nc3ccc(F)cc3O[C@@H]3CO[C@H]4[C@@H]3OC[C@H]4OC)c12 [Example 5.5] | 2 |  | 14 |
| CO[C@@H]1CCCC[C@H]1Oc1cc(F)ccc1Nc1ncnc2cc(N=S(C)(C)=O)cc(C)c12 [Example 2.67] | 3 | 85 |  |
| CS(C)(=O)=Nc1cc(O)c2c(Nc3ccc(F)cc3O[C@H]3CCOC3)ncnc2c1 [Example 1.22] | 25 | 56 |  |
| Cc1cc(N=S(C)(C)=O)cc2ncnc(Nc3ccc(F)cc3O[C@@H]3CCCNC3)c12 [Example 3.9] | 10 | 89 |  |
| Cc1cc(N=S(C)(=O)C2CCOCC2)cc2ncnc(Nc3ccc(F)cc3O[C@@H]3CO[C@@H]4CCO[C@@H]43)c12 (stereo partly shown) [Example 2.99] | 5 | 96 |  |
| Cc1cc(N=S2(=O)CCCC2)cc2ncnc(Nc3ccsc3O[C@@H]3CCOC3)c12 [Example 2.8] | 44 | 64 |  |
| CS(C)(=O)=Nc1cc(F)c2c(Nc3ccc(F)cc3O[C@@H]3CCCN(CC(F)(F)F)C3)ncnc2c1 [Example 6.13] | 4 | 80 |  |
| CCOc1cc(N=S(C)(C)=O)cc2ncnc(Nc3ccc(F)cc3O[C@H]3CC[C@H](OC)CC3)c12 [Example 5.4] | 15 | 78 |  |
| Cc1cc(N=S(C)(C)=O)cc2ncnc(Nc3cccnc3O[C@H]3CC[C@H](NC(=O)OC(C)(C)C)CC3)c12 [Example 2.10] | 4 | 92 |  |
| Cc1cc(N=S(C)(C)=O)cc2ncnc(Nc3ccc(F)cc3O[C@@H]3CO[C@@H]4CCO[C@@H]43)c12 [Example 2.121] | 4 | 89 |  |
| COC1CCCC(Oc2cc(F)ccc2Nc2ncnc3cc(N=S(C)(C)=O)cc(C)c23)C1 (racemic) [Example 4.12] | 14 | 84 |  |
| Cc1cc(N=S2(=O)CCCC2)cc2ncnc(Nc3ccc(F)cc3O[C@@H]3CCCN(C(=O)OC(C)(C)C)C3)c12 [Example 2.66] | 16 | 88 |  |
| CSc1cc(N=S(C)(C)=O)cc2ncnc(Nc3ccc(F)cc3O[C@H]3CCOC3)c12 [Example 7.10] | 2 | 100 |  |
| Cc1cc(N=[S@@](C)(=O)c2ccccc2)cc2ncnc(Nc3ccc(F)cc3O[C@H]3CCOC3)c12 [Example 2.64] | 3 | 87 |  |
| CC(C)(C)OC(=O)N1CCC[C@@H](Oc2ncccc2Nc2ncnc3cc(N=S(C)(C)=O)cc(F)c23)C1 [Example 2.77] | 164 | 55 |  |
| Cc1cc(N=S(C)(C)=O)cc2ncnc(Nc3ccc(F)nc3O[C@H]3CCOC3)c12 [Example 1.40] | 3 | 94 |  |
| Cc1cc(N=S(C)(C)=O)cc2ncnc(Nc3ccc(F)cc3O[C@@H]3CCCN(CCC#N)C3)c12 [Example 6.20] | 4 | 93 |  |
| Cc1cc(N=S(C)(C)=O)cc2ncnc(Nc3cccnc3O[C@H]3CC[C@H](N)CC3)c12 [Example 3.2] | 4 | 101 |  |

| SMILES | IC50 (MNK2a) [nM] | inhibition at 1 µM (MNK1a) [%] | IC50 (MNK1a) [nM] |
| --- | --- | --- | --- |
| Cc1cc(N=S(C)(=O)C(C)(C)C)cc2ncnc(Nc3ccc(F)cc3O[C@H]3CCOC3)c12 (stereo partly shown) [Example 2.112] | 6 | 89 |  |
| Cc1cc(N=S(C)(=O)C2CC2)cc2ncnc(Nc3ccc(F)cc3O[C@H]3CCOC3)c12 (stereo partly shown) [Example 2.103] | 7 |  | 82 |
| Cc1cc(N=S(C)(C)=O)cc2ncnc(Nc3ccc(C#N)cc3OC3CCOCC3)c12 [Example 7.6] | 6 | 99 |  |
| Cc1cc(N=S2(=O)CCCC2)cc2ncnc(Nc3ccc(F)cc3O[C@@H]3CCN(C(=O)OC(C)(C)C)C3)c12 [Example 2.59] | 15 | 82 |  |
| CC(C)(C)OC(=O)N[C@H]1CC[C@H](Oc2ncccc2Nc2ncnc3cc(N=S(C)(C)=O)cc(F)c23)CC1 [Example 2.15] | 7 | 72 |  |
| Cc1cc(N=S2(=O)CCC2)cc2ncnc(Nc3ccc(F)cc3O[C@H]3CCOC3)c12 [Example 2.98] | 1 | 95 |  |
| CO[C@H]1CC[C@H](Oc2cc(F)ccc2Nc2ncnc3cc(N=S4(=O)CCOCC4)cc(C)c23)CC1 [Example 2.17] | 4 | 91 |  |
| Cc1cc(N=S(C)(=O)c2ccncc2)cc2ncnc(Nc3ccc(F)cc3O[C@H]3CCOC3)c12 (stereo partly shown) [Example 2.100] | 6 | 89 |  |
| Cc1cc(N=S(C)(C)=O)cc2ncnc(Nc3cccnc3OC3COCCOC3)c12 [Example 2.91] | 7 | 93 |  |
| Cc1cc(N=S(C)(C)=O)cc2ncnc(Nc3ccc(F)cc3OC3CC(O)C3(C)C)c12 (stereo not shown) [Example 1.35] | 5 | 85 |  |
| Cc1cc(N=S2(=O)CCCCC2)cc2ncnc(Nc3ccc(F)cc3O[C@@H]3CO[C@H]4[C@@H]3OC[C@H]4O)c12 [Example 2.51] | 3 | 101 |  |
| CO[C@@H]1CO[C@H]2[C@@H]1OC[C@H]2Oc1cc(F)ccc1Nc1ncnc2cc(N=S(C)(C)=O)cc(OC(F)F)c12 [Example 1.24] | 1 |  | 18 |
| CO[C@@H]1CO[C@H]2[C@@H]1OC[C@H]2Oc1cc(F)ccc1Nc1ncnc2cc(N=S(C)(C)=O)cc(Cl)c12 [Example 1.2] | 1 |  | 13 |
| Cc1cc(N=S(C)(=O)CCN2CCCC2)cc2ncnc(Nc3ccc(F)cc3O[C@H]3CC[C@H](O)CC3)c12 (stereo partly shown) [Example 2.107] | 10 |  | 102 |
| Cc1cc(N=S(C)(C)=O)cc2ncnc(Nc3ccc(F)cc3OC3COCOC3)c12 [Example 2.120] | 2 | 103 |  |
| Cc1cc(N=S(C)(C)=O)cc2ncnc(Nc3ccc(F)cc3OC3(C)CCC3)c12 [Example 1.29] | 2 | 92 |  |
| Cc1cc(N=S(C)(C)=O)cc2ncnc(Nc3ccc(F)cc3O[C@@H]3CCCC[C@H]3F)c12 [Example 7.17] | 1 | 96 |  |
| Cc1cc(N=S(C)(=O)CCN(C)C)cc2ncnc(Nc3ccc(F)cc3O[C@H]3CC[C@H](O)CC3)c12 (stereo partly shown) [Example 2.113] | 5 | 90 |  |
| Cc1cc(N=S(C)(C)=O)cc2ncnc(Nc3ccsc3O[C@@H]3CCOC3)c12 [Example 2.58] | 109 | 30 |  |
| CS(C)(=O)=Nc1cc(SCF)c2c(Nc3ccc(F)cc3O[C@H]3CCOC3)ncnc2c1 [Example 7.11] | 5 | 98 |  |
| CS(C)(=O)=Nc1cc(C2CC2)c2c(Nc3ccc(F)cc3O[C@H]3CCOC3)ncnc2c1 [Example 1.15] | 3 | 95 |  |
| Cc1cc(N=S(C)(=O)C2CCOCC2)cc2ncnc(Nc3ccc(F)cc3O[C@H]3CCOC3)c12 (stereo partly shown) [Example 2.101] | 5 | 93 |  |
| Cc1cc(N=S(C)(=O)c2cccnc2)cc2ncnc(Nc3ccc(F)cc3O[C@@H]3CO[C@@H]4CCO[C@@H]43)c12 (stereo partly shown) [Example 2.95] | 4 |  | 33 |
| CO[C@@H]1CO[C@H]2[C@@H]1OC[C@H]2Oc1cc(F)ccc1Nc1ncnc2cc(N=S(C)(C)=O)cc(F)c12 [Example 2.76] | 5 | 100 | 57 |
| Cc1cc(N=S2(=O)CCC(O)CC2)cc2ncnc(Nc3ccc(F)cc3O[C@H]3CCOC3)c12 (stereo partly shown) [Example 2.97] | 2 | 93 |  |
| CO[C@@H]1CO[C@H]2[C@@H]1OC[C@H]2Oc1cc(F)ccc1Nc1ncnc2cc(N=S(C)(C)=O)cc(Br)c12 [Example 1.20] | 1 | 100 |  |
| Cc1cc(N=S2(=O)CCCC2)cc2ncnc(Nc3ccc(F)cc3O[C@@H]3CO[C@H]4[C@@H]3OC[C@@H]4F)c12 [Example 2.117] | 1 | 101 |  |
